Experimental data from publication PMC2972222, “Breast Cancer Stem-Like Cells Are Inhibited by a Non-Toxic Aryl Hydrocarbon Receptor Agonist” (PLoS ONE, 2010).

Columns and labels:
[1] = molecular target: T1, aryl hydrocarbon receptor (AHR) (Mus musculus, UniProt P30561); experiment: competition radioligand binding, unlabeled 3-MC versus [3-H]-3-MC on antibody-immobilized AHR
T1 construct: native AHR from mouse liver cytosol, immobilized on plate with anti-AHR antibody
T1 sequence (P30561 10-848): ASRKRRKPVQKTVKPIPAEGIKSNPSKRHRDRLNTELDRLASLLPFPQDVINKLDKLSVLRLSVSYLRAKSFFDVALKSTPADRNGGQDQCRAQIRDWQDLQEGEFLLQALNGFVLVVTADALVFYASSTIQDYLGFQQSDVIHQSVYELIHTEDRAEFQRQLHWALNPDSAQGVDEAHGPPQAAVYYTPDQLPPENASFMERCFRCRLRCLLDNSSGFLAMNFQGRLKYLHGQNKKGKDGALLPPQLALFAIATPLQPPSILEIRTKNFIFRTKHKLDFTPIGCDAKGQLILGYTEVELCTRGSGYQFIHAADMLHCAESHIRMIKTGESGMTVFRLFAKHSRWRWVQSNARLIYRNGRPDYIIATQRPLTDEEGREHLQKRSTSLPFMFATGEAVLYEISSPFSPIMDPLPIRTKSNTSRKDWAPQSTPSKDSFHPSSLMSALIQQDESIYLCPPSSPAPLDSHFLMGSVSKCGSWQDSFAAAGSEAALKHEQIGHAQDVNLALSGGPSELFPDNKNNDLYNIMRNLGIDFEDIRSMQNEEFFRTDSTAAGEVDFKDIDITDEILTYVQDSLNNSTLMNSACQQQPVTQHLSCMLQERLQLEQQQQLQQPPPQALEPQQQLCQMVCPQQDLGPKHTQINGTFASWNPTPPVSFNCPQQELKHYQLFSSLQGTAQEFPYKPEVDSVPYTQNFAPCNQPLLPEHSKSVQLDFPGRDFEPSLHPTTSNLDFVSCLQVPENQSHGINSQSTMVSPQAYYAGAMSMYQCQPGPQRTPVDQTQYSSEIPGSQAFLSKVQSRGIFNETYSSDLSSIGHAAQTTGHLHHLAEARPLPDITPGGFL
Description: competition radioligand binding, unlabeled 3-MC versus [3-H]-3-MC on antibody-immobilized AHR on aryl hydrocarbon receptor (AHR) | Competition of tranilast or unlabeled 3-MC with [3-H]-3-MC for binding to plate-immobilized AHR from mouse liver cytosol

[2] = molecular target: T1, aryl hydrocarbon receptor (AHR); experiment: competition radioligand binding with [3-H]-3-MC on antibody-immobilized AHR

Compound	Ki [1]	Ki [2]
Cc1ccc2cc3c(ccc4ccccc43)c3c2c1CC3 [3-methylcholanthrene]	0.035 µM	–
COc1ccc(/C=C/C(=O)Nc2ccccc2C(=O)O)cc1OC [tranilast, N-[3,4-dimethoxycinnamoyl]anthranilic acid]	–	44 µM
